Data set [1] relates to primary CF epithelia. Nature of the data set: ASL viscosity measurement (FRAP). In kind it is cell-based, human. The following applies: WNK463 10 μM, 2 hours. Here is the method:
ASL viscosity measurement. ASL viscosity was measured using the fluorescence recovery after photobleaching (FRAP) method as previously reported (12). Briefly, powdered FITC-dextran (70 kD, Sigma) was delivered to the apical side of airway epithelia, and allowed to equilibrate for 2 hours. Epithelia were moved to a humidified chamber on the Zeiss LSM 880 confocal microscope. The chamber maintained a temperature of 37° C. and an atmosphere of 5% CO2. After baseline imaging, a small region of interest was photobleached. Time series fluorescence recovery images were collected until maximal recovery was reached. For each epithelium, 4-5 curves from different locations were obtained and averaged. The time constant (T) was calculated from the fluorescence recovery curves using regression, and expressed as ASL value normalized to saline (τASL/τsaline).

Data set [2] relates to NKCC1. Nature of the data set: Ussing chamber, bumetanide-sensitive ISC in non-CF epithelia. The following applies: WNK463 10 μM, 2 hours, amiloride, forskolin, then basolateral bumetanide. In kind it is cell-based, human. As for the experimental part:
(§1) Electrophysiologic studies. Airway epithelia were mounted in modified Ussing chambers (Physiologic Instruments) and bathed in symmetric Krebs buffer solution. The standard Krebs buffer contained (in mM): 118.9 NaCl, 25 NaHCO3, 2.4 K2HPO4, 0.6 KH2PO4, 1.2 MgCl2, 1.2 CaCl2), and 5 dextrose at 37° C., adjusted to pH 7.4 in the presence of 5% CO2. The HCO3^−-free solution contained (in mM): 135 NaCl, 2.4 K2HPO4, 0.6 KH2PO4, 1.2 MgCl2, 1.2 CaCl2), 5 HEPES, and 5 dextrose at 37° C., adjusted to pH 7.4 in nominally C02^−free environment. The Cl^−-free solution contained (in mM): 118.9 Na gluconate, 25 NaHCO3, 2.4 K2HPO4, 0.6 KH2PO4, 5 Ca gluconate, 1 Mg gluconate, 5 dextrose, at 37° C. and adjusted to pH 7.4 in the presence of 5% C02. Epithelia were voltage clamped, followed by recording of the short-circuit current (ISC) and transepithelial conductance (Gt). Exposure to either vehicle (DMSO) or WNK463 was continued during recording. The following agents were added apically (in μM): 100 amiloride, 20 uridine triphosphate (UTP), 100 4,4′-diisothiocyano-2,2′-stilbenedisulfonic acid (DIDS), 10 forskolin, and 10 CFTRinh-172. In some experiments, 100 μM bumetanide was also added to the serosal chambers.
(§2) Reducing basolateral Cl^−-entry increases CF pHASL. […] To estimate the contribution of NKCC1, we added basolateral bumetanide, and measured ΔISC. […]

Another data set deals with S. aureus. Description: S. aureus killing assay (ASL antimicrobial activity, bacteria-coated grids). The data set is classed as cell-based. To be noted: primary CF epithelia; WNK463 10 μM, 2 hours. As for the experimental part:
S. aureus killing assay. ASL antimicrobial activity was assessed using bacteria-coated grids. Preparation, imaging, and quantification were performed as previously described (13). Briefly, S. aureus isolate SA-CL37 was grown to log-phase, labeled with biotin, and conjugated to streptavidin-coated gold electron microscopy grids. The grids were placed on the apical side of airway epithelia in direct contact with ASL. After incubating for 15 minutes in humidified, 5% CO2 chambers at 37° C., the grids were retrieved, rinsed with PBS, and immersed in SYTO9 and propidium iodide to determine bacterial viability (Live/Dead Bacterial Viability Assay, Invitrogen). The grids were washed, fixed with 4% paraformaldehyde, and imaged on the Olympus Fluoview FV 3000 confocal microscope. Images were analyzed for numbers of live and dead bacteria using the ImageJ software. For each grid, three separate regions were imaged. Two grids were assessed per epithelium and the results averaged to obtain % S. aureus killing.

The test system of a further data set is CFTR. Nature of the data set: Ussing chamber, response to CFTRinh-172 in non-CF epithelia. To be noted: WNK463 10 μM. In kind it is cell-based, human. As for the experimental part: as §1
WNK463 reduces electrogenic Cl^− secretion. CFTR is the main route for anion exit across the apical membrane of airway epithelia. Whether WNK inhibition alters CFTR activity in airway epithelia is not well-established. To test, we exposed non-CF epithelia to WNK463 for 2 hours, and assayed in Ussing chambers containing symmetric Krebs solution (118 mM Cl^− and 25 mM HCO3^−, gassed with 5% CO2). After clamping transepithelial voltage, we recorded ISC and Gt, and elicited responses to selective channel inhibitors or activators (FIGS. 5A and 5B). We added amiloride followed by DIDS to abolish ENaC-mediated Na^+ absorption and Ca^2+-activated Cl^− channel (CaCC)-mediated anion secretion, respectively. Next, we added forskolin to increase cellular cAMP and thereby phosphorylate and activate CFTR channels. We concluded with CFTRinh-172, an inhibitor of CFTR. We assessed the response to CFTRinh-172 and used it to estimate CFTR channel activity. WNK463 reduced ΔISC-CFTR by ˜ 50% (FIG. 5C).

The test system of data set [3] is primary cultures of differentiated CF airway epithelia. Description: pHASL measurement (SNARF-1-dextran) in primary CF airway epithelia. In kind it is cell-based, human. From the text:
(§3) Cell culture. Primary cultures of differentiated airway epithelia were obtained without passage from multiple human donors as previously reported (37). Briefly, proximal bronchi were dissected, cut into small pieces, and enzymatically digested. Epithelial cells were isolated and seeded onto collagen-coated inserts (Costar, 3470; Falcon, 353180). Epithelia were differentiated at the air liquid interface for 3 weeks or more prior to assay. During the course of this study, new CF lung donors became scarce, partly due to more individuals taking highly-active CFTR modulators. To manage this situation, epithelial cells from previous CF donors cryopreserved at PO were thawed and differentiated. Whenever feasible, studies followed a paired design so that epithelia from the same donor were assayed under control and treatment conditions.
(§4) pHASL measurement. pHASL was measured using a fluorescent ratiometric pH indicator, SNARF-1, conjugated to 70 kD dextran (Thermo Fisher Scientific). SNARF-1-dextran was delivered as a powder to the apical side and allowed to distribute into ASL for 1 hour. Imaging was performed on a laser-scanning confocal microscope (Zeiss LSM 880). SNARF-1 was excited at 514 nm, and emissions at 580 nm and 640 nm were recorded. The ratio of fluorescence intensities (580/640) was obtained to calculate pH values using calibration curves constructed from colorless standard pH solutions. The microscope chamber housing epithelia maintained a humidified environment at 37° C. 5% CO2 was added to the chamber environment whenever the basolateral side was immersed in a HCO3^− containing buffer solution, but removed when a HCO3^−-free (HEPES) buffer solution was used.

Data set [4] relates to primary CF epithelia. Nature of the data set: Liquid absorption assay. In kind it is cell-based, human. The following applies: WNK463 10 μM, 4 hours. Here is the method: Liquid absorption assay. Liquid absorption was measured using a previously reported method (40). Briefly, airway epithelia were transferred to 500 μl of fresh basolateral solution containing either vehicle or 10 μM WNK463. The apical side was suctioned dry and 30 μl of Krebs buffer solution was introduced. Of note, the apical solution had the same ionic composition, osmolality, and pH as the basolateral solution. After 4 hours, the apical liquid was collected with micropipettes (Drummond Microcaps #1-000-1000) and the height of the liquid column was recorded. Volume of liquid was calculated as the product of height and micropipette cross-sectional area. The difference between the original and 4-hour liquid volumes was used to calculate the rate of absorption (μl·cm^−2·h^−1).

In another data set the test system is CaCC. Description: Ussing chamber, response to apical DIDS in CF epithelia. In kind it is cell-based, human. To be noted: WNK463 10 μM, 2 hours, after amiloride and UTP. Here is the method:
as §1
CF epithelia lack functional CFTR channels, but express CaCC. […] Next, we added DIDS, a non-specific CaCC inhibitor, and recorded the change in ISC and Gt.

In data set [5] the test system is primary CF epithelia. Description: Ciliary beat frequency measurement. To be noted: WNK463 10 μM, 2 hours. In kind it is cell-based, human. Here is the method:
Ciliary beat frequency measurement. Phase contrast videos of ciliary motion were obtained using the Zeiss Axio Observer microscope at 50 frames per second at room temperature. A total of 256 frames (5.1 second videos) were obtained for each field. A minimum of five random fields per culture were selected. Whole field gaussian mean ciliary beat frequencies (CBF) were analyzed using the Sisson-Ammons video analysis software (SAVA; Ammons Engineering, Mt. Morris, MI) (41).

The test system of data set [6] is NKCC1. Description: Ussing chamber, bumetanide-sensitive ISC in CF epithelia. The data set is classed as cell-based, human. To be noted: WNK463 10 μM, 2 hours, amiloride, UTP, then basolateral bumetanide. As for the experimental part:
as §1, §2

The test system of data set [7] is TNFα/IL-17-treated CF epithelia. Description: pHASL measurement in TNFα/IL-17-treated CF epithelia. In kind it is cell-based, human. To be noted: CF epithelia treated with TNFα 10 ng/ml and IL-17 20 ng/ml for 48 hours, 2 hours. Here is the method:
To assess cytokine-induced responses, epithelia were treated with a combination of 10 ng/ml TNFα (R&D Systems) and 20 ng/ml IL-17 (R&D Systems). Both cytokines were added to the basolateral media for 48 hours prior to assessments. All studies were approved by the University of Iowa Institutional Review Board.
as §4

For data set [8] the following is noted: rat model of hypertension; cited from earlier work.
Data set [9] relates to primary cultures of non-CF epithelia. Description: pHASL measurement (SNARF-1-dextran) in primary non-CF airway epithelia. To be noted: WNK463 10 μM, 2 hours, 25 mM HCO3− and 5% CO2. In kind it is cell-based, human.
Description: as §3
pHASL measurement. pHASL was measured using a fluorescent ratiometric pH indicator, SNARF-1, conjugated to 70 kD dextran (Thermo Fisher Scientific). SNARF-1-dextran was delivered as a powder to the apical side and allowed to distribute into ASL for 1 hour. […] SNARF-1 was excited at 514 nm, and emissions at 580 nm and 640 nm were recorded. The ratio of fluorescence intensities (580/640) was obtained to calculate pH values using calibration curves constructed from colorless standard pH solutions. […]

In the next data set the test system is airway epithelia. To be noted: previous studies in airway epithelia; cited from earlier work.
The mark [10] stands for this setting: 2 hours, symmetric Krebs solution with Cl− and HCO3−.

Take `CC(C)(C)NC(=O)c1cncn1C1CCN(c2ccc(-c3nnc(C(F)(F)F)o3)cn2)CC1` [WNK463]: the “ASL viscosity (τASL/τsaline)” value in the data set with primary CF epithelia [1] is given as “decreased”. The “bumetanide-sensitive ISC” value in the data set on NKCC1 [2] and in the data set with NKCC1 [6] was “reduced” in each case. The “ASL-mediated S. aureus killing” value with S. aureus is listed as “increased”. Further, the figures for the ΔISC-CFTR entry in the data set with CFTR (Cl−-free solution) and in the data set on CFTR (symmetric HCO3−-free solution) were “remained unchanged” and “reduced”, respectively. Further, the “reduction of ΔISC-CFTR” value in the data set on CFTR (setting [10]) is recorded as approximately 50%. The ΔGt-CFTR entry in the data set with CFTR (setting [10]) is “remained unchanged”. Besides, the pHASL entry is recorded as “failed to alkalinize” in data set [3] (CF epithelia, WNK463 10 μM, 2 hours, in the absence of basolateral Cl−); “increased” in data set [3] (primary CF epithelia, WNK463 10 μM, 2 hours, 25 mM HCO3− and 5% CO2); “further increased” in [7] (WNK463 10 μM); “increased” in [9]. Moreover, in [3] (primary CF epithelia, continued exposure up to 24 hours versus 2 hours), the “pHASL, time course” value is “did not further alkalinize”. Moreover, in data set [3] (primary CF epithelia, nominally HCO3−/CO2-free environment (HEPES), WNK463 10 μM), the pHASL response entry is reported as “disappeared”. Moreover, the “rate of apical liquid absorption” value with primary CF epithelia [4] is reported as “did not alter”. Also, in the data set with CaCC, the “DIDS-sensitive ΔGt” value is given as “slightly increased”. In addition, in the data set with CaCC, the “DIDS-sensitive ΔISC” value was “decreased”. The ciliary beat frequency entry in the data set on primary CF epithelia [5] was “increased”. In addition, in data set [8], the adverse effects entry is “adverse effects”.

Take `CCCCNc1cc(C(=O)O)cc(S(N)(=O)=O)c1Oc1ccccc1` [bumetanide]: the pHASL entry in data set [3] (CF epithelia, 2 hours after exposure to basolateral bumetanide) is recorded as “increased”; in data set [7] (bumetanide 100 μM), “further alkalinized”. For the same compound, the “intracellular [Cl−]” value with airway epithelia was “decreases”.

With `O=C(Nc1ccc(Oc2ccc(Cl)cc2)c(Cl)c1)c1cc(I)cc(I)c1O` [rafoxanide, Rafoxanide], the pHASL entry in [3] (primary CF epithelia, rafoxanide applied for 2 hours) is on record as “increased”.
